Broadly, the IC50 is the concentration that inhibits the measured activity by half.

In the assay the test system is tumor cells C26. As to the kind of experiment: MTT assay, in vitro cytotoxicity, 72 h incubation. Type of assay: cell-based. The protocol:
In vitro cytotoxicity of CDDP, P(CA8-G)-CDDP and P(CA12-G)-CDDP was evaluated by using a MTT assay. To measure cytotoxicity, tumor cells C26 were separately incubated in a plate with different concentrations of CDDP, P(CA8-G)-CDDP and P(CA12-G)-CDDP. The duration of incubation was 72 h. […] With respect to FIG. 13, it is concluded that, loading of cisplatin into the P(CA8-G)-CDDP and P(CA12-G)-CDDP influences its cytotoxicity. […] According to the MTT assay measurements, IC50 doses of free cisplatin, P(CA8-G)-CDDP and P(CA12-G)-CDDP were calculated. IC50 dose is the concentrations of active ingredients necessary to inhibit the cell growth by 50%.
P(CA12-G)-CDDP was synthesized in the same manner as explained above. P(CA8-G)-CDDP and P(CA12-G)-CDDP were used for MTT assay measurements.
(Tetrazolium dyes change colour on reduction, which living cells bring about.)

The molecule `N.N.[Cl][Pt][Cl]` [CDDP, cis-dichlorodiammineplatinum (II)] had a concentration for half-maximal inhibition (IC50) of 37.9 µg/mL.

Values taken from patent publication US20110159113A1, “HYPERBRANCHED POLYESTER AND A METHOD OF SYNTHESIZING A HYPERBRANCHED POLYESTER” (priority 2011, published 2011).
